These results are taken from patent publication US8871767B2, “2-arylimidazo[1,2-B]pyridazine, 2-phenylimidazo[1,2-A]pyridine, and 2-phenylimidazo[1,2-A]pyrazine derivatives” (Hengrui (USA) Ltd., priority 2010, dated 2014).

Test [1] relates to Hedgehog pathway activation on 10T1/2/Smo#3 cells (C3H10T1/2 cells transfected with human Smoothened receptor). In words: Hedgehog pathway activation on 10T1/2/Smo#3 cells measured by ALP activity. It is filed as cell-based. The conditions noted are these: Mus musculus, C3H 10T1/2, 10T1/2/Smo#3 cells. The method, boiled down:
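Inhibition of alkaline phosphatase induction, read fluorometrically from 4-methylumbelliferyl phosphate conversion, gave IC50 values; CellTiter-Blue tracked viability in parallel. Cells were the human Smo-transfected 10T1/2/Smo#3 pool, stimulated by 10-20% hShh conditioned medium or the Smo agonist SAG (500 nM).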

The subject of test [2] is Hedgehog pathway activation (GLi-luciferase reporter) in Shh Light II reporter cells. In words: Hedgehog pathway activation on Shh Light II reporter cells measured by luciferase activity. The format is cell-based. The conditions noted are these: Mus musculus, Shh Light II. Summed up: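 Shh Light II reporter cells carrying a hedgehog-responsive GLi-luciferase reporter were stimulated either with 500 nM SAG, a direct Smoothened agonist, or with conditioned media containing human Sonic Hedgehog (hShh). Test compounds were evaluated for blocking this pathway activation, quantified by luciferase activity. Cell viability was monitored in parallel with the Celltiter-Blue® assay.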

The mark [3] stands for this setting: measured by ALP activity, read-out: ALP (IC50, inhibition of Hedgehog pathway activation).
Where [4] appears, read: hShh activation, read-out: Shh (IC50, inhibition of Hedgehog pathway activation).
Setting [5] is: hShh activation, ALP activity, read-out: 10T1/2/Smo#3 ALP activity (hShh Activation).
Where [6] appears, read: SAG activation (500 nM SAG), read-out: Shh Light II luciferase activity (SAG activation).
[7] abbreviates: hShh activation, read-out: Shh Light II luciferase activity (hShh activation).

Read-outs that look alike come from different tables or passages of the source.

With `CC(C)(C)C(=O)Nc1cc(-c2cn3nc(OC4CCC4)ccc3n2)ccc1C(F)(F)F` [Example 182, N-(5-(6-cyclobutoxyimidazo[1,2-b]pyridazin-2-yl)-2-(trifluoromethyl)phenyl)pivalamide], the figures for the IC50 in test [1] (setting [3]) and in test [2] (setting [4]) were 1.85 µM and 1.74 µM, respectively.

Regarding `CCc1ccc(-c2cn3nc(-c4cccnc4C(F)(F)F)ccc3n2)cc1NC(=O)C1CCCCC1` [Example 687, N-(2-ethyl-5-(6-(2-(trifluoromethyl)pyridin-3-yl)imidazo[1,2-b]pyridazin-2-yl)phenyl)cyclohexanecarboxamide], the results for the IC50 in test [1] (setting [3]) and in test [2] (setting [4]) were 1.59 µM and 0.463 µM, respectively.

Consider `Cc1ccc(-c2cn3nc(-c4ccc(C#N)cc4Cl)ccc3n2)cc1NC(=O)C(C)(C)C` [compound 564], for which the IC50 in test [1] (setting [3]) came to 0.06 µM; in test [2] (setting [4]), 0.02 µM.

With `Cc1ccc(-c2cn3nc(N4CCC(C(N)=NO)CC4)ccc3n2)cc1NC(=O)C(C)(C)C` [compound 566], the IC50 is 0.371 µM in test [1] (setting [3]) and 0.285 µM in test [2] (setting [4]).

For the compound `Cc1ccc(-c2cn3nc(-c4cc(C(N)=NO)ccc4C(F)(F)F)ccc3n2)cc1NC(=O)C(C)(C)C` [compound 601], the IC50 in test [1] (setting [3]) came to 0.04 µM; in test [2] (setting [4]), 0.066 µM.

For `Cc1ccc(-c2cn3nc(-c4cccc(F)c4C(F)(F)F)ccc3n2)cc1NC(=O)C(C)(C)C` [Example 395, N-(5-(6-(3-fluoro-2-(trifluoromethyl)phenyl)imidazo[1,2-b]pyridazin-2-yl)-2-methylphenyl)pivalamide], the IC50 in test [1] (setting [3]) was found to be 0.087 µM; in test [2] (setting [4]), 0.015 µM.

Take `CC(C)(C)C(=O)Nc1cc(-c2cn3nc(-c4ccccc4Cl)ccc3n2)ccc1C(F)(F)F` [Example 208, N-(5-(6-(2-chlorophenyl)imidazo[1,2-b]pyridazin-2-yl)-2-(trifluoromethyl)phenyl)pivalamide]: the IC50 in test [1] (setting [3]) was 0.14 µM; in test [2] (setting [4]), 0.095 µM.

Consider `Cc1ccc(-c2cn3nc(-c4cccnc4C(F)(F)F)ccc3n2)cc1NC(=O)C(C)(C)C(F)(F)F` [Example 638, 3,3,3-trifluoro-2,2-dimethyl-N-(2-methyl-5-(6-(2-(trifluoromethyl)pyridin-3-yl)imidazo[1,2-b]pyridazin-2-yl)phenyl)propanamide], for which the IC50 in test [1] (setting [3]) and in test [2] (setting [4]) was 0.02 µM in each case.

As to `CCOc1nn2cc(-c3ccc(C(F)(F)F)c(NC(=O)C(C)(C)C)c3)nc2c(C)c1C` [Example 201, N-(5-(6-ethoxy-7,8-dimethylimidazo[1,2-b]pyridazin-2-yl)-2-(trifluoromethyl)phenyl)pivalamide], the IC50 in test [1] (setting [3]) turned out to be 0.869 µM; in test [2] (setting [4]) it was 0.402 µM.

Turning to `Cc1ccc(-c2cn3nc(-c4ccccc4OC(F)(F)F)ccc3n2)cc1NC(=O)C(C)(C)C` [Example 263, N-(2-methyl-5-(6-(2-(trifluoromethoxy)phenyl)imidazo[1,2-b]pyridazin-2-yl)phenyl)pivalamide], the IC50 in test [1] (setting [3]) amounted to 0.102 µM; in test [2] (setting [4]), 0.228 µM.

As for `Fc1ccc(CN2CCN(c3ccc4nc(-c5ccc(F)cc5)c(Br)n4n3)CC2)cc1` [Example 146, 3-bromo-6-(4-(4-fluorobenzyl)piperazin-1-yl)-2-(4-fluorophenyl)imidazo[1,2-b]pyridazine], the IC50 in test [1] (setting [3]) is 6.98 µM; in test [2] (setting [4]) it was above 10 µM.

On to `CCOc1ccc2nc(-c3ccc(C(F)(F)F)c(NC(=O)C4CCCCC4)c3)cn2n1` [Example 190, N-(5-(6-ethoxyimidazo[1,2-b]pyridazin-2-yl)-2-(trifluoromethyl)phenyl)cyclohexanecarboxamide], for which the IC50 is 5.25 µM in test [1] (setting [3]) and above 10 µM in test [2] (setting [4]).

With `Cc1cc(F)c(-c2cn3nc(-c4cccnc4C(F)(F)F)ccc3n2)cc1NC(=O)C(C)(C)C` [Example 649, N-(4-fluoro-2-methyl-5-(6-(2-(trifluoromethyl)pyridin-3-yl)imidazo[1,2-b]pyridazin-2-yl)phenyl)pivalamide], the results for the IC50 in test [1] (setting [3]) and in test [2] (setting [4]) were 0.05 µM and 0.08 µM, respectively.

On to `Cc1ccc(-c2cn3nc(-c4cccc(OCCCCCC(=O)NO)c4C(F)(F)F)ccc3n2)cc1NC(=O)C(C)(C)C` [Example 438, N-hydroxy-6-(3-(2-(4-methyl-3-pivalamidophenyl)imidazo[1,2-b]pyridazin-6-yl)-2-(trifluoromethyl)phenoxy)hexanamide], for which the IC50 came to 2.6 µM in test [1] (setting [3]) and 1.16 µM in test [2] (setting [4]).

With `CCc1ccc(-c2cn3nc(-c4cccnc4C(F)(F)F)ccc3n2)cc1NC(=O)C(C)(C)CC` [Example 689, N-(2-ethyl-5-(6-(2-(trifluoromethyl)pyridin-3-yl)imidazo[1,2-b]pyridazin-2-yl)phenyl)-2,2-dimethylbutanamide], the results for the IC50 in test [1] (setting [3]) and in test [2] (setting [4]) were 0.188 µM and 0.064 µM, respectively.

In the case of `Cc1ccc(-c2cn3nc(Cl)ccc3n2)cc1NC(=O)C(C)(C)C` [Example 118, N-(5-(6-chloroimidazo[1,2-b]pyridazin-2-yl)-2-methylphenyl)pivalamide], the IC50 came to 1.21 µM in test [1] (setting [3]) and 0.613 µM in test [2] (setting [4]).

For the compound `COc1ccc(-c2ccc3nc(-c4ccc(C(F)(F)F)c(NC(=O)C(C)(C)C)c4)cn3n2)cn1` [Example 170, N-(5-(6-(6-methoxypyridin-3-yl)imidazo[1,2-b]pyridazin-2-yl)-2-(trifluoromethyl)phenyl)pivalamide], the IC50 in test [1] (setting [3]) stood at 0.681 µM; in test [2] (setting [4]), 0.562 µM.

As to `CCOC(=O)CCCCCOc1ccc(-c2ccc3nc(-c4ccc(C)c(NC(=O)C(C)(C)C)c4)cn3n2)c(C(F)(F)F)c1` [Example 412, ethyl 6-(4-(2-(4-methyl-3-pivalamidophenyl)imidazo[1,2-b]pyridazin-6-yl)-3-(trifluoromethyl)phenoxy)hexanoate], the IC50 is 0.3 to 3 µM in test [1] (setting [5]); 0.665 µM in test [1] (setting [3]); 0.3 to 3 µM in test [2] (setting [6]); 0.225 µM in test [2] (setting [4]); below 0.3 µM in test [2] (setting [7]).

Consider `COc1ccc2nc(-c3ccc(C(F)(F)F)c(NC(=O)C(C)(C)C)c3)cn2n1` [Example 125, N-(5-(6-methoxyimidazo[1,2-b]pyridazin-2-yl)-2-(trifluoromethyl)phenyl)pivalamide], for which the IC50 in test [1] (setting [3]) was 1.25 µM; in test [2] (setting [4]) it was 0.435 µM.

For `Cc1ncc(-c2cn3nc(-c4ccccc4F)ccc3n2)cc1NC(=O)C(C)(C)C` [Example 390, N-(5-(6-(2-fluorophenyl)imidazo[1,2-b]pyridazin-2-yl)-2-methylpyridin-3-yl)pivalamide], the IC50 in test [1] (setting [5]) was 0.3 to 3 µM; in test [1] (setting [3]), 0.469 µM; in test [2] (setting [6]), 0.3 to 3 µM; in test [2] (setting [4]), 0.27 µM; in test [2] (setting [7]) it was below 0.3 µM.

As to `CCc1ccc(-c2cn3nc(-c4cccnc4C(F)(F)F)ccc3n2)cc1NC(=O)C1(C)CC1` [Example 633], the IC50 in test [1] (setting [5]), in test [2] (setting [6]) and in test [2] (setting [7]) was below 0.3 µM each time.

As for `CN[C@@H]1CCN(c2ccc3nc(-c4ccc(C)c(NC(=O)C(C)(C)C)c4)cn3n2)C1` [Example 391, (R)-N-(2-methyl-5-(6-(3-(methylamino)pyrrolidin-1-yl)imidazo[1,2-b]pyridazin-2-yl)phenyl)pivalamide], the IC50 is below 0.3 µM in test [1] (setting [5]); 0.123 µM in test [1] (setting [3]); 0.3 to 3 µM in test [2] (setting [6]); 0.057 µM in test [2] (setting [4]); below 0.3 µM in test [2] (setting [7]).

For the compound `CC(C)(C)C(=O)Nc1cc(-c2cn3nc(C4CCCC4)ccc3n2)ccc1C(F)(F)F` [Example 133, N-(5-(6-cyclopentylimidazo[1,2-b]pyridazin-2-yl)-2-(trifluoromethyl)phenyl)pivalamide], the IC50 was 0.849 µM in test [1] (setting [3]) and 0.487 µM in test [2] (setting [4]).

As for `O=C(Nc1cc(-c2cn3nc(-c4cccnc4C(F)(F)F)ccc3n2)ccc1Cl)C1CCCC1` [Example 671, N-(2-chloro-5-(6-(2-(trifluoromethyl)pyridin-3-yl)imidazo[1,2-b]pyridazin-2-yl)phenyl)cyclopentanecarboxamide], the IC50 was 0.315 µM in test [1] (setting [3]) and 0.024 µM in test [2] (setting [4]).

As to `CC(C)(C)C(=O)Nc1cc(-c2cn3cc(Cl)ncc3n2)ccc1C(F)(F)F` [Example 85, N-(5-(6-chloroimidazo[1,2-a]pyrazin-2-yl)-2-(trifluoromethyl)phenyl)pivalamide], the IC50 in test [1] (setting [3]) is 1.32 µM; in test [2] (setting [4]) it was 4.39 µM.

Turning to `CCOC(=O)Nc1cc(-c2cn3nc(-c4cccnc4C(F)(F)F)ccc3n2)c(F)cc1Cl` [Example 657, ethyl 2-chloro-4-fluoro-5-(6-(2-(trifluoromethyl)pyridin-3-yl)imidazo[1,2-b]pyridazin-2-yl)phenylcarbamate], the IC50 in test [1] (setting [3]) worked out at 0.251 µM; in test [2] (setting [4]), 0.096 µM.

For the compound `Cc1c(-c2ccccc2)nc2ccc(N3CCN(Cc4ccccn4)CC3)nn12` [Example 160, 3-methyl-2-phenyl-6-(4-(pyridin-2-ylmethyl)piperazin-1-yl)imidazo[1,2-b]pyridazine], the IC50 in test [1] (setting [3]) came out at 0.627 µM; in test [2] (setting [4]) it was 2.51 µM.

For `Cc1ccc(-c2cn3nc(-c4ccc(Cl)cn4)ccc3n2)cc1NC(=O)C(C)(C)C` [Example 366, N-(5-(6-(5-chloropyridin-2-yl)imidazo[1,2-b]pyridazin-2-yl)-2-methylphenyl)pivalamide], the IC50 in test [1] (setting [3]) turned out to be 1.1 µM; in test [2] (setting [4]) it was 0.227 µM.
